Patent US20050228180A1, “Alpha, omega-dicarboximide derivatives as useful uro-selective a1a adrenoceptor blockers” (priority 2002, published 2005)
pKi: −log10 of the molar value. Structures can show the parent of a compound that is named as a salt.

Columns and labels:
α1D adrenoceptor (aorta) = target: T1, α1D adrenoceptor (aorta) (Rattus norvegicus, UniProt P23944); experiment: In vitro functional assay, isolated aorta, norepinephrine contraction; format: cell-based; conditions: for Kb: read-out: α Adrenoceptor Subtype (pKB) α1D (converted)
T1 construct: Isolated tissues were mounted in organ bath containing Krebs Henseleit buffer; from tissue; host or cells: isolated rat aorta
T1 sequence (P23944 1-561): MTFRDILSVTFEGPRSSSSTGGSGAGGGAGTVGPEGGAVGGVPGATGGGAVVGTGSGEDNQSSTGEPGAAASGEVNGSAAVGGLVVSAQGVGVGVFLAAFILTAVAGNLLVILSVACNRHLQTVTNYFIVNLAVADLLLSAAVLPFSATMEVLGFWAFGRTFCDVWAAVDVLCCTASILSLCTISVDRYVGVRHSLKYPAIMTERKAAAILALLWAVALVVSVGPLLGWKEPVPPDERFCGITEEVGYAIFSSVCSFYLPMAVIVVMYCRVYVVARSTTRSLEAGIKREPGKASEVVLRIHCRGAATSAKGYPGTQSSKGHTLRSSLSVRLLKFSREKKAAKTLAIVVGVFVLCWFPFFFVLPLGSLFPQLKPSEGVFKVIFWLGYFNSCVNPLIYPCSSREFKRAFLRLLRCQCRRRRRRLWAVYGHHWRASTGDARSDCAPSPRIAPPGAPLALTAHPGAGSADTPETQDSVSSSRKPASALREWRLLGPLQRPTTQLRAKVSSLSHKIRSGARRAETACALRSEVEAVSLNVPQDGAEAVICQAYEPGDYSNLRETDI
From the text: (§1) In order to study selectivity of action of these compounds towards different a-adrenoceptor subtypes, the ability of these compounds to antagonise (α1D) prostate (α1A) and spleen (α1B) was studied. Aorta and spleen tissues were isolated from urethane anaesthetized (1.5 g/kg) male wister rats. Isolated tissues were mounted in organ bath containing Krebs Henseleit buffer of the following composition (mM): NaCl 118; KCl 4.7; CaCl2 2.5; MgSO4 7H2O 1.2; NaHCO3 25; KH2PO4 1.2; glucose 11.5. Buffer was maintained at 37° C. and aereated with a mixture of 95% O2 and 5% CO2. A resting tension of 2 g (aorta) or 1 g (spleen and prostate) was applied to tissues. Contractile response was monitored using a force displacement transducer and recorded on chart recorders. Tissues were allowed to equilibrate for 2 hours. At the end of equilibration period, concentration response curves to norepinephrine (aorta) and phenylepinephrine (spleen and prostate) were obtained in the absence and presence of tested compound (at concentration of […]). Antagonist affinity was calculated and expressed as pKB values in Table II.

α1B adrenoceptor = target: T2, α1B adrenoceptor (Rattus norvegicus, UniProt P15823); experiment: Radioligand binding, [3H] prazosin displacement, rat liver membranes; conditions: read-out: Affinity (Ki) α1B (Rat Liver)
T2 construct: from tissue; host or cells: rat liver membranes
T2 sequence (P15823 1-515): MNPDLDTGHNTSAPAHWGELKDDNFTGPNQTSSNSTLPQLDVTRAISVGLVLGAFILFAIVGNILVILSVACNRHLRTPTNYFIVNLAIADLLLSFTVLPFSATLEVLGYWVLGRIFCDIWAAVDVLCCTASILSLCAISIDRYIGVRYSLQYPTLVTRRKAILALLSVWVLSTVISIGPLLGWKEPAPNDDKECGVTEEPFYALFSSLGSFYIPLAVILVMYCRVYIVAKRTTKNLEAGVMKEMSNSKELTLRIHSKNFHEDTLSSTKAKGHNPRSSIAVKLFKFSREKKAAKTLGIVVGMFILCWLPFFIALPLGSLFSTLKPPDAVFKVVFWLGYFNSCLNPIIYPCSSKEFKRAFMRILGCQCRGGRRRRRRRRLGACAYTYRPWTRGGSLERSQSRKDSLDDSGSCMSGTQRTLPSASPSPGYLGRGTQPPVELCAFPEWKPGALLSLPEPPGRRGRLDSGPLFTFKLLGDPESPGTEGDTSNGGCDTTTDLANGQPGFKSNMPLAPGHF
Procedure, shortened: (§2)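 Rat membranes (submaxillary for α1A, liver for α1B; 150-250 μg protein) incubated with [3H]prazosin and compound in Tris 50 mM/EDTA 5 mM pH 7.4, 1 h at 24-25° C. Nonspecific binding with 300 nM prazosin; filtration, counting; Ki via Cheng–Prusoff.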

[1] = target: T3, α1A adrenoceptor (prostate) (Rattus norvegicus, UniProt P43140); experiment: In vitro functional assay, isolated prostate, phenylepinephrine contraction; format: cell-based; conditions: for Selectivity α1B/α1A / Selectivity α1D/α1A: functional, from pKB; for Kb: read-out: α Adrenoceptor Subtype (pKB) α1A (converted)
T3 construct: from tissue; host or cells: isolated prostate tissue
T3 sequence (P43140 1-466): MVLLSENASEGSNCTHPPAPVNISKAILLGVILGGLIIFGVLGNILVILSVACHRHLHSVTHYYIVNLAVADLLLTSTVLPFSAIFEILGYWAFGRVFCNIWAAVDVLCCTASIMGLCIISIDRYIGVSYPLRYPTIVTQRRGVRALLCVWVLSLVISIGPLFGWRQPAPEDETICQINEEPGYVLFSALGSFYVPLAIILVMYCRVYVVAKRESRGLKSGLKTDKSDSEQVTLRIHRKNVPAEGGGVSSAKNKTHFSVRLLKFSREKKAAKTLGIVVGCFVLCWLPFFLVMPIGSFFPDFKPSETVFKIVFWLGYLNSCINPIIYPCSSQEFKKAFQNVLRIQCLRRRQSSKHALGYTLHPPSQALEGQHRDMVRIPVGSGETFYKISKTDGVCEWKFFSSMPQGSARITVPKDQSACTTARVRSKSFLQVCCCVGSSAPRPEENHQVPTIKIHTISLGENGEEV
From the text: as §1

α1A adrenoceptor = target: T4, α1A adrenoceptor (Rattus norvegicus, UniProt P43140); experiment: Radioligand binding, [3H] prazosin displacement, rat submaxillary membranes; conditions: for pKi: [3H] prazosin displacement, rat submaxillary membranes, read-out: Affinity (Ki) α1A (Rat Submaxillary); for α1B/α1A: ratio of binding affinities, rat liver / rat submaxillary
T4 construct: from tissue; host or cells: rat submaxillary gland membranes
T4 sequence (P43140 1-466): T3 sequence (P43140 1-466)
Procedure, shortened: as §2

[2] = target: T5, α1B adrenoceptor (spleen) (Rattus norvegicus, UniProt P15823); experiment: In vitro functional assay, isolated spleen, phenylepinephrine contraction; format: cell-based; conditions: for Kb: read-out: α Adrenoceptor Subtype (pKB) α1B (converted)
T5 construct: Isolated tissues were mounted in organ bath containing Krebs Henseleit buffer; from tissue; host or cells: isolated rat spleen
T5 sequence (P15823 1-515): T2 sequence (P15823 1-515)
From the text: as §1

[3] = rat prostate, phenylepinephrine

SMILES	Kb (α1D adrenoceptor (aorta)) [nM]	pKi (α1B adrenoceptor)	Selectivity α1B/α1A [1]	Selectivity α1D/α1A [1]	Kb [1, 3] [nM]	pKi (α1A adrenoceptor)	Kb [2] [nM]	α1B/α1A (α1A adrenoceptor)	α Adrenoceptor Subtype (pKB) α1D (α1D adrenoceptor (aorta))	α Adrenoceptor Subtype (pKB) α1A [1, 3]	α Adrenoceptor Subtype (pKB) α1B [2]
CCOc1ccccc1[N+]1([O-])CC[N+]([O-])(CCCN2C(=O)C3CC=CCC3C2=O)CC1 (stereo not drawn) [Compound No. 10, 2-[3-{4-(2-Ethoxyphenyl)piperazin-1-yl, 1,4-N,N-dioxide}propyl]-3a,4,7,7a-tetrahydro-1H-isoindole-1,3(2H)-dione]	58.9	< 6.00	13	40	1.48	< 6.00	18.6	–	–	–	–
CCOc1ccccc1N1CCN(CC(O)CN2C(=O)C3CC=CCC3C2=O)CC1 (stereo not drawn) [Compound No. 11, 2-[3-{4-(2-Ethoxyphenyl)piperazin-1-yl}-2-hydroxypropyl]-3a,4,7,7a-tetrahydro-1H-isoindole-1,3-(2H)-dione hydrochloride]	3.72	6.72	0.1	0.5	7.24	8.19	0.759	30	–	–	–
CCOc1ccccc1N1CCN(CCCN2C(=O)C3CC(O)C(O)CC3C2=O)CC1 (stereo not drawn) [Compound No. 12, 2-[3-{4-(2-Ethoxyphenyl)piperazin-1-yl}propyl]-5,6-dihydroxy-3a,4,5,6,7,7a-hexahydro-1H-isoindole-1,3(2H)-dione]	6.92	6.93	60	4.2	1.66	8.77	100	69	–	–	–
CC(C)Oc1ccccc1N1CCN(CCCN2C(=O)C3CC(O)C(O)CC3C2=O)CC1 (stereo not drawn) [Compound No. 13, 2-[3-{4-(2-Isopropoxyphenyl)piperazin-1-yl}propyl]-5,6-dihydroxy-3a,4,5,6,7,7a-hexahydro-1H-isoindole-1,3(2H)-dione]	2.29	7.07	17	0.7	3.24	9.44	55	236	–	–	–
CCOc1ccccc1N1CCN(CCCN2C(=O)C3CC(O)C(Cl)CC3C2=O)CC1.Cl (stereo not drawn) [Compound No. 17]	–	–	347	3.9	–	–	–	50	9.07	9.54	7
CC(C)Oc1ccccc1N1CCN(CCCN2C(=O)C3CC4OC4CC3C2=O)CC1 (stereo not drawn) [Compound No. 19, 2-[3-{4-(2-Isopropoxyphenyl)piperazin-1-yl}propyl]-5,6-epoxy-3a,4,5,6,7,7a-hexahydro-1H-isoindole-1,3(2H)-dione]	2.69	6.98	87	3.4	0.794	9.64	69.2	452	–	–	–
